From patent US5188955A, “Method of preserving arylacylamidase in aqueous solution” (GDS Technology, Inc., priority 1992, dated 1993)
Entries after “also recorded” stand apart in the source; their conditions may differ. Where two headings read alike, the source gives them in different places.

Key:
Type in all cases: biochemical
arylacylamidase = test: General findings on effect of stabilizers on arylacylamidase
[1] = test system: arylacylamidase E.C. 3.5.1.13; test: Stability of aqueous arylacylamidase solution at 37° C. with or without o-cresol (Example 1); conditions: for Remaining enzyme activity: 37° C.
Procedure: (§1) Arylacylamidase enzyme was dissolved in water containing 50 mM borate buffer at various pH's at widely different concentrations of between 1 and 1500 U/L in the presence of between 1 and 12 mM o-cresol. The same solution of enzyme in buffer was prepared without o-cresol. Both sets of solutions were maintained at 37° C. for a period of two weeks. The enzyme activity was measured at the beginning of the period, as well as at certain times during the two week period. The enzyme activity was determined by a method which uses 50 mM Tris.HCl, pH 8.5, and 1 mM paranitroacetanilide as the enzyme substrate. In the presence of arylacylamidase, the p.nitroacetanilide is hydrolyzed to p-nitroaniline which absorbs at 405 nm. The kinetic assay was performed at 30° C. and 405 nm. One unit of enzyme activity is defined as 1 μ mole of p.nitroaniline formed using p-nitroacetanilide as a substrate at 30° C.

[2] = test system: arylacylamidase E.C. 3.5.1.13; test: Stability of arylacylamidase dried on paper strips with or without o-cresol (Example 2); conditions: 37° C., two weeks
Procedure: as §1
Two arylacylamidase aqueous solutions of 100 U/L were prepared in water containing 50 mM borate buffer, pH 8.0, one in the presence of 10 mM o-cresol and one in the absence of o-cresol. Whatman 54 and Whatman 3MM paper strips (2"×12") were impregnated with these solutions and dried. The dried paper strips were stored at 37° C. for two weeks. […] The enzyme activity was measured using the assay described in Example 1.

[3] = test system: arylacylamidase E.C. 3.5.1.13; conditions: 10 mM Tris-HCl pH 7.0
Procedure: as §1
An aqueous solutiOn of arylacylamidase, from about 100-200 U/mL, in 10 mM Tris-HCl buffer, which was maintained at pH 7.0, was lyophilized in the presence of various amounts of sodium benzoate and in the absence of sodium benzoate. After lyophilization, the enzyme samples were dissolved in deionized water to make an aqueous enzyme solution of 100 U/mL of water, and assayed for enzyme activity using the assay described in Example 1.

[4] = test system: arylacylamidase E.C. 3.5.1.13; conditions: Arylacylamidase 21.6 U/mL with 1 mg/mL sodium benzoate, 10 mM Tris-HCl pH 7.0
Procedure: as §1
The arylacylamidase was dissolved in an aqueous buffer, such as in 10 mM Tris-HCl, pH 7.0, in the presence of 1 mg/ml sodium benzoate and in the absence of sodium benzoate.
The samples were maintained at 4° C., room temperature, and 37° C. The residual activity was determined using the enzyme assay described in Example 1.

[5] = test system: arylacylamidase E.C. 3.5.1.13; conditions: 37° C., two weeks

## O=C(O)c1ccccc1 [benzoic acid]
arylacylamidase
  use as substrate / inhibition of arylacylamidase activity: neither compound is used by the enzyme as a substrate nor causes inhibition of the activity of arylacylamidase

## Cc1ccccc1O [o-cresol]
[1]; pH 8.0, 2.8 mM o-cresol, 0 HRS
  Remaining enzyme activity: 13.6 U/ML
[1]; pH 8.0, 2.8 mM o-cresol, 3 DAYS
  Remaining enzyme activity: 13.6 U/ML
[1]; pH 8.0, 2.8 mM o-cresol, 5 HRS
  Remaining enzyme activity: 13.5 U/ML
[1]; pH 8.0, 2.8 mM o-cresol, 7 DAYS
  Remaining enzyme activity: 12.3 U/ML
[1]; pH 8.0, 2.8 mM o-cresol, 14 DAYS
  Remaining enzyme activity: 11.8 U/ML
[1]; pH 8.0, 4.2 mM o-cresol, 0 HRS
  Remaining enzyme activity: 6.25 U/ML
[1]; pH 8.0, 4.2 mM o-cresol, 3 DAYS
  Remaining enzyme activity: 6.20 U/ML
[1]; pH 8.0, 4.2 mM o-cresol, 5 HRS
  Remaining enzyme activity: 6.16 U/ML
[1]; pH 8.0, 4.2 mM o-cresol, 7 DAYS
  Remaining enzyme activity: 5.66 U/ML
[1]; pH 8.0, 4.2 mM o-cresol, 14 DAYS
  Remaining enzyme activity: 5.36 U/ML
[1]; pH 8.0, 14 days at 37° C., 2.8 mM o-cresol
  activity of aqueous solution of arylacylamidase maintained: over 80%
[1]; pH 9.0, 2.2 mM o-cresol, 0 HRS
  Remaining enzyme activity: 13.6 U/ML
[1]; pH 9.0, 2.2 mM o-cresol, 3 DAYS
  Remaining enzyme activity: 11.2 U/ML
[1]; pH 9.0, 2.2 mM o-cresol, 5 HRS
  Remaining enzyme activity: 13.7 U/ML
[1]; pH 9.0, 2.2 mM o-cresol, 7 DAYS
  Remaining enzyme activity: 9.26 U/ML
[1]; pH 9.0, 2.2 mM o-cresol, 14 DAYS
  Remaining enzyme activity: 5.44 U/ML
[1]; pH 9.0, 3.75 mM o-cresol, 0 HRS
  Remaining enzyme activity: 6.15 U/ML
[1]; pH 9.0, 3.75 mM o-cresol, 3 DAYS
  Remaining enzyme activity: 5.03 U/ML
[1]; pH 9.0, 3.75 mM o-cresol, 5 HRS
  Remaining enzyme activity: 6.20 U/ML
[1]; pH 9.0, 3.75 mM o-cresol, 7 DAYS
  Remaining enzyme activity: 4.16 U/ML
[1]; pH 9.0, 3.75 mM o-cresol, 14 DAYS
  Remaining enzyme activity: 2.36 U/ML
[2]; Strips of Whatman 3 MM, 10 mM o-cresol
  Residual Activity (Recovery): 40%
[2]; Strips of Whatman 54, 10 mM o-cresol
  Residual Activity (Recovery): 70%
arylacylamidase
  use as substrate / inhibition of arylacylamidase activity: neither compound is used by the enzyme as a substrate nor causes inhibition of the activity of arylacylamidase
arylacylamidase; 10-100 mg/ml of ortho-cresol
  effect on stability of the enzyme: enhances the stability of the enzyme
arylacylamidase; higher concentrations of ortho-cresol, on the order of about 1%
  effect on the enzyme: inactivate the enzyme and make it unstable
arylacylamidase; o-cresol concentrations above about 0.5%
  effect on stability of arylacylamidase: specifically destabilizes arylacylamidase; also recorded: act to destabilize the arylacylamidase enzyme

## O=C(O)c1ccccc1 [sodium benzoate]
[3]; 1 mM sodium benzoate
  % Recovery After Lyophilization: 75%
[3]; 5 mM sodium benzoate
  % Recovery After Lyophilization: 95%
[3]; 10 mM sodium benzoate
  % Recovery After Lyophilization: 104%
[4]
  Remaining Activity at 4° C. (8 days): 80%
  Remaining Activity at 37° C. (1 day): 85%
  Remaining Activity at 37° C. (4 days): 30%
  Remaining Activity at Room Temp (8 days): 71%
[5]; Strips of Whatman 3 MM, 10 mM sodium benzoate
  Residual Activity (Recovery): 70%
[5]; Strips of Whatman 54, 10 mM sodium benzoate
  Residual Activity (Recovery): 85%
